Earlier results as cited in US7976869B2, “Fenofibrate tablets” (Laboratoires Fournier S.A., priority 2001, dated 2011).
Read-outs that look alike come from different tables or passages of the source.

Settings: conventional gelatin capsule form

bioavailability (after a meal): 89%
bioavailability (on an empty stomach): 26%
SMILES: CC(C)OC(=O)C(C)(C)Oc1ccc(C(=O)c2ccc(Cl)cc2)cc1 [Fenofibrate]
